This note sets out measurements from patent US8648201B2, “Aminopyridine derivatives for treating tumors and inflammatory diseases” (MERCK PATENT GmbH, priority 2009, dated 2014).

What all share (type): biochemical
Holding throughout (details): enzyme

One test has as its target T1, IRAK-4 (Homo sapiens, UniProt Q9NWZ3).
T1 construct: His6 (N); Dr.Jaekel
T1 sequence (Q9NWZ3 1-460): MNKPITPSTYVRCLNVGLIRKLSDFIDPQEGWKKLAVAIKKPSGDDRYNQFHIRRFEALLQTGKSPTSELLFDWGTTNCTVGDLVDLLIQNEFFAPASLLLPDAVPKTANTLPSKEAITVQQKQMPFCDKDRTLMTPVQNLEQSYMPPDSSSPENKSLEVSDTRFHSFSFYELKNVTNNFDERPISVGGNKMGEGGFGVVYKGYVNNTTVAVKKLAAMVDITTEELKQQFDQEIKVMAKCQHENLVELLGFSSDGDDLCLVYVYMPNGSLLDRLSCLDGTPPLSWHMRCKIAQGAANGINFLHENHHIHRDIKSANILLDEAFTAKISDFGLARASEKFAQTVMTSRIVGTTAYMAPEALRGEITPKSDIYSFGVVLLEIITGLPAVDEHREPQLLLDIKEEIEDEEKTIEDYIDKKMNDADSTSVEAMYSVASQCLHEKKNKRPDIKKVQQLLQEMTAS
In words: Test for the inhibition of IRAK4 (flashplate, 33P-ATP). As for the experimental part:
(§1) The experimental batches are carried out in a flashplate system with 384 wells/microtitre plate. In each case, the IRAK4 sample His6-IRAK4 (7.3 nM), the biotinylated substrate peptide STK substrate 1-biotin (Cisbio Bioassays, France) (300 nM), 10 μM ATP (with 0.25 μCi of ^33P-ATP/well) and the test substance in 50 μl of conventional experimental solution per well are incubated at 22° C. for 180 min. The test substances are employed in corresponding concentrations (if desired in a dilution series). The control is carried out without test substance. The reaction is stopped using standard methods and washed. The activity of the kinase is measured via the incorporated radioactivity in top count. In order to determine the non-specific kinase reaction (blank value), the experimental batches are carried out in the presence of 1 μM staurosporin. The radioactivity (decompositions per minute) of the blank value (no use of test substance in the presence of 1 μM staurosporin) is subtracted from all other radioactivity values. The controls (kinase activity without test substance) are set equal to 100 percent and all other radioactivity values (after subtracting the blank value) are expressed set in relation thereto (for example in % of the control). IC50 values (50% inhibition) are determined with the aid of statistics programs, such as, for example, RS1.

A further test deals with T2, IRAK-1 (Homo sapiens, UniProt P51617).
T2 construct: His6 (N); Dr.Jaekel Pool B, 232Y08C1.IRK
T2 sequence (P51617 whole entry, species assumed): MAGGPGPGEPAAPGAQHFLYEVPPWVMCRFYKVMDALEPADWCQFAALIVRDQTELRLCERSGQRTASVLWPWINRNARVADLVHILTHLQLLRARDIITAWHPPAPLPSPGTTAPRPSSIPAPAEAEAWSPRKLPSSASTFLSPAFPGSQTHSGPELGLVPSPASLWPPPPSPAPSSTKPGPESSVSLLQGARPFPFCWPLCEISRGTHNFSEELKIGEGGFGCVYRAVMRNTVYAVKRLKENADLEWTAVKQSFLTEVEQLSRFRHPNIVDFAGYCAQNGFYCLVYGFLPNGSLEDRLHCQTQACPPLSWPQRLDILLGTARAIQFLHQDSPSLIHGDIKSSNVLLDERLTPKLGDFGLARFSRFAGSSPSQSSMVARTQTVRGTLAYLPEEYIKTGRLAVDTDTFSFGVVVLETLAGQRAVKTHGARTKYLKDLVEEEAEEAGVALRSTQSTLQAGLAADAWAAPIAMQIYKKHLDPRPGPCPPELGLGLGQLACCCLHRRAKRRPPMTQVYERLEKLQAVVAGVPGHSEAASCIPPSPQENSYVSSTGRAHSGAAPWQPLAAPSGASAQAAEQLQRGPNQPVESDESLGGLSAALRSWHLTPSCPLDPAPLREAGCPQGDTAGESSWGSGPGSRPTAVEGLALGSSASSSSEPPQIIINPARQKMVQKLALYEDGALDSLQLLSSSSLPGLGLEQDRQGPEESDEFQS
Description: Test for the inhibition of IRAK1 (autophosphorylation, flashplate). As for the experimental part: as §1, with “case, in order to investigate” for “case,”, “inhibition of the autophosphorylation activity of IRAK1, the IRAK1” for “IRAK4”, “His6-IRAK1 (5.1” for “His6-IRAK4 (7.3”, “1” for “the biotinylated substrate peptide STK substrate 1-biotin (Cisbio Bioassays, France) (300 nM), 10”

The next test addresses T3, PDK1 (Homo sapiens, UniProt O15530).
T3 construct: His6 (N)
T3 sequence (O15530 51-556 limits assumed): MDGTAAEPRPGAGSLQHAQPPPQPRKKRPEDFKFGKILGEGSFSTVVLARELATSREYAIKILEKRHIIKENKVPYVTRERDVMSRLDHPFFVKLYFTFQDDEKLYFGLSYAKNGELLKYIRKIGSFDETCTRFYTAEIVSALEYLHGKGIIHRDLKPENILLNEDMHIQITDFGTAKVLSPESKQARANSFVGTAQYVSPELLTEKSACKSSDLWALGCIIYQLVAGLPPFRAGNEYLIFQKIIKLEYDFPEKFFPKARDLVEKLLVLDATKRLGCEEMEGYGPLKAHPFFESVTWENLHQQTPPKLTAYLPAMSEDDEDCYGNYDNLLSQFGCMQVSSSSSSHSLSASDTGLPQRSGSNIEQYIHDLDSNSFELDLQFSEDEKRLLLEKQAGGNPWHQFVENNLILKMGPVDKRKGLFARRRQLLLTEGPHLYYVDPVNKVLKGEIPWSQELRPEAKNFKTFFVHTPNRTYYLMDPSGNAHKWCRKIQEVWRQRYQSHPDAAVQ
In words: Test for the inhibition of PDK1 (flashplate, 33P-ATP). As for the experimental part:
The experimental batches are carried out in a flashplate system with 384 wells/microtitration plate.
In each case, the PDK1 sample His6-PDK1(1-50)(3.4 nM), the PDK1 substrate biotin-bA-bA-[…] (400 nM), 4 μM ATP (with 0.2 μCi of ^33P-ATP/well) and the test substance in 50 μl of conventional experimental solution per well are incubated at 30° C. for 60 min. The test substances are employed in corresponding concentrations (if desired in a dilution series). The control is carried out without test substance. The reaction is stopped using standard methods and washed. The activity of the kinase is measured via the incorporated radioactivity in top count. In order to determine the non-specific kinase reaction (blank value), the experimental batches are carried out in the presence of 100 nM staurosporin.
The radioactivity (decompositions per minute) of the blank value (no use of test substance in the presence of staurosporin) is subtracted from all other radioactivity values. The controls (kinase activity without test substance) are set equal to 100 percent and all other radioactivity values (after subtracting the blank value) are expressed set in relation thereto (for example in % of the control).
IC50 values (50% inhibition) are determined with the aid of statistics programmes, such as, for example, RS1.

As for `Cn1cc(-c2cnc(N)c(-c3nc4ccc(-c5ccc(=O)[nH]n5)cc4[nH]3)c2)cn1` [Compound A8, 6-{2-[2-Amino-5-(1-methyl-1H-pyrazol-4-yl)-pyridin-3-yl]-3H-benzimidazol-5-yl}-2H-pyridazin-3-one], the IC50 on IRAK-4 and against IRAK-1 was 100 to 10000 nM each time.

Turning to `CC1CC(=O)NN=C1c1ccc2[nH]c(-c3cc(-c4cnn(C5CCNCC5)c4)cnc3N)nc2c1` (stereo not shown) [Compound A17, 6-{2-[2-amino-5-(1-piperidin-4-yl-1H-pyrazol-4-yl)-pyridin-3-yl]-1H-benzimidazol-5-yl}-5-methyl-4,5-dihydro-2H-pyridazin-3-one], the IC50 (in general, the concentration needed to halve the response being measured) on PDK1 lay within 1 to 100 nM.

In turn, `CC1CC(=O)NN=C1c1ccc2[nH]c(-c3cc(-c4cnn(CC(=O)O)c4)cnc3N)nc2c1` (stereo not shown) [Compound A24, (4-{6-amino-5-[5-(4-methyl-6-oxo-1,4,5,6-tetrahydropyridazin-3-yl)-1H-benzimidazol-2-yl]pyridin-3-yl}pyrazol-1-yl)acetic acid] came in with a concentration for half-maximal inhibition (IC50) on PDK1 of 1 to 100 nM. In the case of `CC1CC(=O)NN=C1c1ccc2[nH]c(-c3cc(-c4cnn(CC(=O)N(C)C)c4)cnc3N)nc2c1` (stereo not shown) [Compound A25, 2-(4-{6-amino-5-[5-(4-methyl-6-oxo-1,4,5,6-tetrahydropyridazin-3-yl)-1H-benzimidazol-2-yl]pyridin-3-yl}pyrazol-1-yl)-N,N-dimethylacetamide], on PDK1, the IC50 lay within 1 to 100 nM. Turning to `CC1CC(=O)NN=C1c1ccc2[nH]c(-c3cc(-c4cnn(CC(=O)N5CCN(C)CC5)c4)cnc3N)nc2c1` (stereo not shown) [Compound A26, 6-[2-(2-Amino-5-{1-[2-(4-methylpiperazin-1-yl)-2-oxoethyl]-1H-pyrazol-4-yl}-pyridin-3-yl)-1H-benzimidazol-5-yl]-5-methyl-4,5-dihydro-2H-pyridazin-3-one], the IC50 against PDK1 is 1 to 100 nM. Turning to `COc1cc2[nH]c(-c3cc(-c4cnn(CC(=O)N5CCCCC5)c4)cnc3N)nc2cc1F` [Compound A30, 2-{4-[6-amino-5-(5-fluoro-6-methoxy-1H-benzimidazol-2-yl)pyridin-3-yl]pyrazol-1-yl}-1-piperidin-1-ylethanone], the concentration for half-maximal inhibition (IC50) is 100 to 10000 nM at IRAK-4 and 1 to 100 nM against IRAK-1. Taken in the same sequence, the figures for `Nc1ncc(-c2ccncc2)cc1-c1nc2ccccc2[nH]1` [Compound A32] were 100 to 10000 nM and 100 to 10000 nM. Consider `Cn1cc(-c2cnc(N)c(-c3nc4ccccc4[nH]3)c2)cn1` [Compound A34], for which the IC50 against IRAK-4 and against IRAK-1 was 100 to 10000 nM in each case. Consider `Nc1ccc(-c2cnc(N)c(-c3nc4ccccc4[nH]3)c2)cn1` [Compound A35], for which the 50% inhibitory concentration (IC50) against IRAK-4 and against IRAK-1 was 100 to 10000 nM each time. For `Cc1cccc2nc(-c3cc(-c4cnn(C)c4)cnc3N)[nH]c12` [Compound A42], the IC50 on IRAK-4 and against IRAK-1 was 100 to 10000 nM in each case.

As to `Cc1cccc2nc(-c3cc(-c4cnn(CCN5CCOCC5)c4)cnc3N)[nH]c12` [Compound A48], the IC50 at IRAK-4 and at IRAK-1 was 100 to 10000 nM throughout.

Consider `Nc1ncc(-c2cnn(C3CCNCC3)c2)cc1-c1nc2ccc(F)cc2[nH]1` [Compound A50], for which the IC50 against IRAK-4 lay within 1 to 100 nM; against IRAK-1, 100 to 10000 nM. Take `Nc1ncc(-c2cnn(C3CCNCC3)c2)cc1-c1nc2cc3[nH]c(=O)[nH]c3cc2[nH]1` [Compound A55]: the half-maximal inhibitory concentration (IC50) against PDK1 was in the range of 1 to 100 nM. Turning to `Nc1ncc(-c2cnn(C3CCNCC3)c2)cc1-c1nc2cc(S(N)(=O)=O)ccc2[nH]1` [Compound A62], the IC50 against IRAK-4 and at IRAK-1 was 100 to 10000 nM in each case. For the compound `Cn1cc(-c2cnc(N)c(-c3nc4ccc(CCN)cc4[nH]3)c2)cn1` [Compound A64], at PDK1, the IC50 lay in the range of 1 to 100 nM. For `COc1cc2nc(-c3cc(-c4cnn(C5CCNCC5)c4)cnc3N)[nH]c2cc1OC` [Compound A66], the IC50 at IRAK-4 and against IRAK-1 was 100 to 10000 nM throughout. Regarding `Nc1ncc(-c2cnn(C3CCNCC3)c2)cc1-c1nc2ccc(Cl)cc2[nH]1` [Compound A70], the values for the IC50 on IRAK-4 and on IRAK-1 were 1 to 100 nM and 100 to 10000 nM, respectively.

As for `Cc1cc(Cl)cc2nc(-c3cc(-c4cnn(C5CCNCC5)c4)cnc3N)[nH]c12` [Compound A72], the concentration for half-maximal inhibition (IC50) at IRAK-4 and on IRAK-1 was 100 to 10000 nM in each case.

For `Cn1cc(-c2cnc(N)c(-c3nc4c(F)cc(F)cc4[nH]3)c2)cn1` [Compound A76], the half-maximal inhibitory concentration (IC50) against IRAK-4 is greater than 10000 nM; against IRAK-1, 100 to 10000 nM. The like results for `COc1ccc2nc(-c3cc(-c4cnn(CCN(C)C)c4)cnc3N)[nH]c2c1` [Compound A94, 5-[1-(2-Dimethylaminoethyl)-1H-pyrazol-4-yl]-3-(6-methoxy-1H-benzimidazol-2-yl)pyridin-2-ylamine] were, in that order, 100 to 10000 nM and 100 to 10000 nM. The like results for `COc1ccc2nc(-c3cc(-c4cnn(CCCN(C)C)c4)cnc3N)[nH]c2c1` [Compound A96, 5-[1-(3-Dimethylaminopropyl)-1H-pyrazol-4-yl]-3-(6-methoxy-1H-benzimidazol-2-yl)pyridin-2-ylamine] were, in that order, 100 to 10000 nM and 100 to 10000 nM. Taken in the same sequence, the figures for `CCn1cc(-c2cnc(N)c(-c3nc4ccc(OC)cc4[nH]3)c2)cn1` [Compound A105, 5-(1-Ethyl-1H-pyrazol-4-yl)-3-(6-methoxy-1H-benzimidazol-2-yl)pyridin-2-ylamine] were 100 to 10000 nM and 100 to 10000 nM. On PDK1, `Cn1cc(-c2cnc(N)c(-c3nc4cc(CC(N)=O)ccc4[nH]3)c2)cn1` [Compound A120, 2-{2-[2-amino-5-(1-methyl-1H-pyrazol-4-yl)pyridin-3-yl]-1H-benzimidazol-5-yl}acetamide] came in with an IC50 of 1 to 100 nM. Consider `CC(O)(c1ccccc1)c1ccc2[nH]c(-c3cc(-c4cnn(CCN5CCOCC5)c4)cnc3N)nc2c1` (stereo not shown) [Compound A150, 1-(2-{2-Amino-5-[1-(2-morpholin-4-ylethyl)-1H-pyrazol-4-yl]pyridin-3-yl}-1H-benzimidazol-5-yl)-1-phenylethanol], for which, on PDK1, the IC50 fell in the range of 100 to 10000 nM.
